From US9717714B2, “Spirocyclic CETP inhibitors” (Merck Sharp & Dohme Corp., priority 2012, dated 2017)

Columns and labels:
[1] = target: CETP (Homo sapiens (Human), UniProt P11597); test: Scintillation Proximity Assay (SPA) for CETP activity; type: biochemical; conditions: 15 nM CETP
Method: Protocol: Scintillation Proximity Assay (SPA) for CETP Activity
First, low density lipoprotein (LDL) (Meridian) was biotinylated by incubating LDL with biotin for 1 hour on ice, after which it was dialyzed to remove free biotin. Then compounds at varying concentrations were incubated with 15 nM CETP (reagent production group, In Vitro Pharmacology, MRL Rahway) and 50 ug/ml of the biotinylated LDL in 50 mM HEPES, 150 mM NaCl, pH 7.4, for 1 hour at 37° C. The reaction was started by adding ^3H-cholesterol ester high density lipoprotein (HDL) (American Radiochemicals Corp) at a concentration of ˜0.6 nM. The reaction proceeded for 2 hours at 37° C., after which time it was quenched by the addition of 12% acetic acid. PVT streptavadin-coated scintillation proximity beads, which had been brought to room temperature, were then added at a concentration of 4 mg/ml. The assay was then mixed and counted after one half hour in a Microbeta plate reader.

[2] = patients on baseline statin therapy, compared with just a statin; cited from earlier work

CETP, sequence (P11597 18-493): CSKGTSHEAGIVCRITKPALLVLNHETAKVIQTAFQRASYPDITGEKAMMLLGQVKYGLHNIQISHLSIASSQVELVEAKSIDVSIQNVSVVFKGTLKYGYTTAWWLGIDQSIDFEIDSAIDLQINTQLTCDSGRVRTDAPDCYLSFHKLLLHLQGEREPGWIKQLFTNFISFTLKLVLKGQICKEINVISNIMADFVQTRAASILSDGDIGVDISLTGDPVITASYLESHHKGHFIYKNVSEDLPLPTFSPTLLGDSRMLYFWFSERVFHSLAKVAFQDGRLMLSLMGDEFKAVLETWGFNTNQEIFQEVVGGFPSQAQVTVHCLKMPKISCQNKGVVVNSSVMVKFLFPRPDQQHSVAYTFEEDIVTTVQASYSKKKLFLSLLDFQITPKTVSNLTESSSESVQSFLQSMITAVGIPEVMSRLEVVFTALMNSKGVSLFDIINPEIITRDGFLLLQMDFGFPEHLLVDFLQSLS

Row | SMILES | IC50 [1] | decrease of LDL-C [2] | increase of HDL-C [2]
1 | COc1ccc(-c2ccc(C(=O)O)cc2C)cc1-c1cnc(N(C)C)nc1CN1C(=O)O[C@@H](c2cc(C(F)(F)F)cc(C(F)(F)F)c2)C12CC2 [Example 8, 3′-[4-({(7S)-7-[3,5-bis(trifluoromethyl)phenyl]-5-oxo-6-oxa-4-azaspiro[2.4]hept-4-yl}methyl)-2-(dimethylamino)pyrimidin-5-yl]-4′-methoxy-2-methylbiphenyl-4-carboxylic acid] | 6.3 µM | – | –
2 | COc1cc(F)c(C(C)C)cc1-c1ccc(C(F)(F)F)cc1CN1C(=O)O[C@H](c2cc(C(F)(F)F)cc(C(F)(F)F)c2)[C@@H]1C [anacetrapib] | – | 40% | 138%
